Assay results published in patent US12109204B2, “Methods for treating muscular dystrophies” (The Regents of the University of California, priority 2018, dated 2024).

Legend:
Type in all cases: cell-based, murine
[1] = system: MYOG, myogenin; assay: MYOG gene expression by qPCR in C2C12 wild-type myotubes; settings: 48 hours, normalized to β-actin (FIG. 12a)
Description: (§1) RNA from myotubes treated for 48 hours was extracted from cells using Trizol-based (Thermo Fisher Scientific) phase separation. RNA concentrations were determined using a NanoDrop 1000 (Thermo Fisher Scientific) and 750 ng of RNA in a 20 μl reaction was reverse transcribed using iScript cDNA synthesis (Bio-Rad) with the following cycling conditions: 25° C. for 5 minutes, 42° C. for 30 minutes, 85° C. for 5 minutes. For quantitative PCR, SsoFast EvaGreen Supermix (Bio-Rad), 400 nM of each optimized forward and reverse primer (for primer descriptions see Table 1), and cDNA corresponding to 37.5 ng RNA were used to amplify cDNA measured by Applied Biosystems 7300 (Thermo Fisher Scientific) with the following reaction conditions: 55° C. for 2 minutes, 95° C. for 2 minutes, 40 cycles of 95° C. for 10 seconds and 62° C. for 30 seconds, and dissociation stage. Each sample was run in triplicate. Data was analyzed using the ddCT method and normalized to reference gene, GAPDH or β-actin, with vehicle-treated samples serving as the calibrator (relative expression of vehicle control=1). C2C12 cells (American Type Culture Collection) were grown at 37° C. with 5% CO2 in growth media containing DMEM (Gibco) with 20% FBS (Sigma-Aldrich). Upon reaching confluency, the media was replaced with differentiation media containing DMEM with 2% horse serum (Sigma-Aldrich). […]

[2] = system: mdx myotubes; assay: Fusion index in mdx myotubes; settings: mdx myotubes (FIG. 12c-d)
[3] = system: SSPN, sarcospan; assay: SSPN gene expression by qPCR in C2C12 wild-type myotubes; settings: 1-10 μM, 48 hours, normalized to β-actin (FIG. 10c)
Description: (§2) RNA from myotubes treated for 48 hours was extracted from cells using Trizol-based (Thermo Fisher Scientific) phase separation. RNA concentrations were determined using a NanoDrop 1000 (Thermo Fisher Scientific) and 750 ng of RNA in a 20 μl reaction was reverse transcribed using iScript cDNA synthesis (Bio-Rad) with the following cycling conditions: 25° C. for 5 minutes, 42° C. for 30 minutes, 85° C. for 5 minutes. For quantitative PCR, SsoFast EvaGreen Supermix (Bio-Rad), 400 nM of each optimized forward and reverse primer (for primer descriptions see Table 1), and cDNA corresponding to 37.5 ng RNA were used to amplify cDNA measured by Applied Biosystems 7300 (Thermo Fisher Scientific) with the following reaction conditions: 55° C. for 2 minutes, 95° C. for 2 minutes, 40 cycles of 95° C. for 10 seconds and 62° C. for 30 seconds, and dissociation stage. Each sample was run in triplicate. Data was analyzed using the ddCT method and normalized to reference gene, GAPDH or β-actin, with vehicle-treated samples serving as the calibrator (relative expression of vehicle control=1). C2C12 cells (American Type Culture Collection) were grown at 37° C. with 5% CO2 in growth media containing DMEM (Gibco) with 20% FBS (Sigma-Aldrich). Upon reaching confluency, the media was replaced with differentiation media containing DMEM with 2% horse serum (Sigma-Aldrich). Conditionally immortalized H2K mdx myoblast cells with a nonsense mutation in exon 23 of dystrophin were a gift from Terrance Partridge, Ph.D. (Children's National Medical Center, Washington, D.C.). Cells were allowed to proliferate on 0.01% gelatin (Sigma-Aldrich) coated plates at 33° C. with 5% CO2 with growth media containing DMEM, 20% HI-FBS (Invitrogen), 2% L-glutamine (Sigma-Aldrich), 2% chicken embryo extract (Accurate Chemical), 1% penicillin-streptomycin (Sigma-Aldrich), and 20U/ml of fresh interferon gamma (Gibco). For differentiation, H2K mdx myoblasts were seeded on plates coated with 0.1 mg/ml matrigel (Corning) diluted in DMEM and grown in proliferation conditions. […]

[4] = system: SSPN, sarcospan; assay: SSPN gene expression by qPCR in mdx myotubes; settings: for SSPN gene expression over vehicle: 1-10 μM, 48 hours, normalized to β-actin (FIG. 10d)
Description: as §2

[5] = system: UTRN, utrophin; assay: UTRN gene expression by qPCR in C2C12 wild-type myotubes; settings: C2C12 wild-type myotubes, 48 hours, normalized to β-actin (FIG. 12a)
Description: as §1

[6] = system: hSSPN-EGFP myotubes (human sarcospan promoter reporter in C2C12); assay: hSSPN-EGFP reporter myotube assay (high-content imaging)
Description: C2C12 immortalized murine myoblasts cultured in growth media consisting of DMEM (Gibco) with 20% Fetal Bovine Serum (Sigma-Aldrich) at 37° C. with 5% CO2 were transfected with the hSSPN-EGFP or hSSPN-Luciferase linearized plasmids using Lipofectamine 3000 Transfection Reagent (Thermo Fisher Scientific). Transfected cells were selected using 800 μg/ml of G418 (Sigma-Aldrich) for 4 weeks to generate stable cell lines expressing reporter protein under control of the human SSPN promoter.
hSSPN-EGFP myoblasts were seeded at 500 cells per well in 50 μl of growth media in 384-well black, clear bottom microplates (Greiner) using a Multidrop 384 (Thermo Fisher Scientific) and incubated for 3 days. Upon reaching confluency, the growth media was replaced with 50 μl of differentiation media consisting of DMEM with 2% horse serum (Sigma-Aldrich) using an EL406 combination washer dispenser (Biotek). At day 2 of differentiation, the media on the cells was aspirated, left with a residual volume of 10 μl, and replaced with 30 μl of fresh differentiation media. 0.5 μl of small molecule in DMSO or DMSO alone (for vehicle and positive control wells) was added to each well using a Biomek Fx (Beckman). To ensure proper mixing of the DMSO, 50 μl of additional differentiation media was added to all wells except the positive control treated wells, which instead received 50 μl of media containing insulin transferrin selenium (ITS, Gibco) to reach a final concentration of 1% ITS. The final concentration of drug in each treated well was 5.5 μM in 0.55% DMSO and 0.55% DMSO for vehicle and positive control treated wells. After 48 hours of incubation, the media was replaced with Fluorobrite DMEM (Gibco) and each plate was imaged using ImageXpress Micro Confocal High Content Imaging System (Molecular Devices). The fluorescent intensity of imaged cells was determined using MetaXpress Analysis software (Molecular Devices). Analysis setting were as follows: top hat (size: 12, filter shape: circle), adaptive threshold (source: top hat, minimum width: 10, maximum width: 800, intensity above local background: 500), filter mask (filter type: minimum area filter, minimum value: 500). […]

CCOC(=O)C1=C(C)NC(C)=C(C(=O)OC)C1c1cccc(Cl)c1Cl (centres unmarked) [Felodipine, 5-O-ethyl 3-O-methyl 4-(2,3-dichlorophenyl)-2,6-dimethyl-1,4-dihydropyridine-3,5-dicarboxylate]
myogenin gene expression [1]: increases | fusion index (nuclei in myosin heavy chain positive area/total nuclei in field) [2]: does not increase fusion index | SSPN gene expression over vehicle [3]: increases sarcospan gene expression | SSPN gene expression over vehicle ([3]; listed as felodipine): increased over vehicle | SSPN gene expression over vehicle [4]: increases sarcospan gene expression | SSPN gene expression over vehicle ([4]; listed as felodipine): increase in SSPN gene expression | SSPN gene expression relative to vehicle ([4]; 48h, normalized to GAPDH, n=2 (FIG. 11d)): only increased sarcospan levels | utrophin gene expression [5]: increases | fluorescence intensity over vehicle, primary screen hit call ([6]; primary screen of 3,200 molecules, 5.5 μM, 48 hours, n=1, hit cutoff 1.4-fold): hits | hSSPN-EGFP RFU, Plate 1 ([6]; retest of screen hits at 5.5 μM, Plate 1, n=24 per plate): 1.4 RFU | hSSPN-EGFP RFU, Plate 2 ([6]; retest of screen hits at 5.5 μM, Plate 2, n=24 per plate): 1.4 RFU
